Laboratory results taken from patent publication US20200037600A1, “MESOIONIC IMIDAZOPYRIDINES AS INSECTICIDES” (Bayer Aktiengesellschaft, priority 2017, published 2020).

What was measured:
Format in all cases: in vivo
[1] = test system: Myzus persicae; test: Myzus persicae oral test; conditions: after 5 days
Summary of the method: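 Aphids fed through parafilm on compound formulation (acetone, diluted with water) mixed 50:150 μL with IPL41 insect medium (33%+15% sugar), using a mixed population. Efficacy was recorded after 5 days as % mortality (100% = all aphids killed).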

[2] = test system: Myzus persicae; test: Myzus persicae spray test; conditions: application rate 500 g/ha; Chinese cabbage leaf discs; after 5 days
[3] = test system: Nilaparvata lugens; test: Nilaparvata lugens test; conditions: application rate 500 g/ha; rice plants; after 4 days
Protocol: (§1) Solvent: 78.0 parts by weight of acetone • • 1.5 parts by weight of dimethylformamide
(§2) Emulsifier: alkylaryl polyglycol ether
(§3) To produce a suitable active compound formulation, 1 part by weight of active compound is dissolved with the specified parts by weight of solvent and made up to the desired concentration with water containing an emulsifier concentration of 1000 ppm. To produce further test concentrations, the formulation is diluted with emulsifier-containing water.
Rice plants (Oryza sativa) are sprayed with the active compound formulation of the desired concentration and then infected with the brown planthopper (Nilaparvata lugens).
After 4 days, the efficacy in % is determined. 100% means that all of the planthoppers have been killed; 0% means that none of the planthoppers have been killed.

[4] = test system: Ctenocephalides felis; test: Ctenocephalides felis in vitro contact test with adult cat fleas; conditions: application rate 5 μg/cm^2 (=500 g/ha), after 48 h
Protocol: Ctenocephalides felis—In Vitro Contact Tests with Adult Cat Fleas
For the coating of the test tubes, 9 mg of active compound are first dissolved in 1 ml of acetone p.a. and then diluted to the desired concentration with acetone p.a. 250 μl of the solution are distributed homogeneously on the inner walls and the base of a 25 ml glass tube by turning and rocking on an orbital shaker (rocking rotation at 30 rpm for 2 h). With 900 ppm of active compound solution and internal surface area 44.7 cm^2, given homogeneous distribution, an area-based dose of 5 μg/cm^2 is achieved.
After the solvent has evaporated off, the tubes are populated with 5-10 adult cat fleas (Ctenocephalides felis), sealed with a perforated plastic lid and incubated in a horizontal position at room temperature and ambient humidity. After 48 h, efficacy is determined. To this end, the tubes are stood upright and the fleas are knocked to the base of the tube. Fleas which remain motionless at the base or move in an uncoordinated manner are considered to be dead or moribund.
100% efficacy means that all the fleas were dead or moribund. 0% efficacy means that no fleas were harmed.

[5] = test system: Nezara viridula; test: Nezara viridula spray test; conditions: application rate 500 g/ha; larvae on barley plants; after 4 days
Protocol: Nezara viridula—Spray Test
as §1, §2, §3
Barley plants (Hordeum vulgare) infected with larvae of the Southern green shield bug (Nezara viridula) are srayed with an active compound formulation of the desired concentration.
After 4 days, the efficacy in % is determined. 100% means that all of the shield bugs have been killed; 0% means that none of the shield bugs have been killed.

[6] = test system: Diabrotica balteata; test: Diabrotica balteata spray test; conditions: application rate 160 μg/well; beetle larvae on germinated wheat grains; after 7 days

SMILES: CC(=O)c1c([O-])[n+]2ccccc2n1Cc1cnc(Cl)s1 [Example I-008]
- efficacy ([1]; application rate 4 ppm): 100%
- efficacy ([1]; application rate 20 ppm): 100%
- efficacy [2]: 100%
- efficacy [3]: 100%
- efficacy [4]: 100%
- efficacy [5]: 90%
- efficacy [6]: 100%
